Source: paper PMC5625148, “Arginine‐rich membrane‐permeable peptides are seriously toxic” (Pharmacology Research & Perspectives, 2017)
Where a name gives a salt, the structure may show the parent alone.

Assays:
[1] = test system: mice; experiment: Acute toxicity study in mice after intravenous (tail vein) injection of MPPs or MPP-conjugates; assay type: in vivo, mice (Kunming species)
Procedure: A total of 390 mice (Kunming species, 22 ± 2 g, sex matched), were provided by the Experimental animal center of Academy of military medical sciences, China. The health condition of the mice was examined to confirm their suitability for use in the study. The animal rooms were monitored and maintained under a 12 h light‐dark cycle with temperature ranging from 20 to 25°C and a relative humidity of 40–60%. All the mice were allowed to acclimate to the laboratory environment for 2 days, housed by sex in groups of five per cage, provided with standard commercial diet and drinking water ad libitum. All the animal procedures performed in this study were reviewed and approved by the Animal Experimental Welfare and Ethical Inspection Committee of the Chinese Center for Disease Control and Prevention (Approval number IACUC#15‐026).
Firstly, a preliminary sequential toxicity testing was carried to find out the scope of the dosage. Then four dosages within this range were properly selected to carry on the LD50 estimation. The LD50 was calculated avoid the all or none survival groups of mice.
Five males and five females per group were stratified by weight and assigned randomly. The control mice and those in groups 1, 2, 3, 4 were intravenously injected with different doses of MPPs or MPP‐conjugates. The general behavior and signs of toxicity were monitored for 3 h after administration, and carried on once a day up to 14 days. The surviving mice were euthanized while those died from the poisoning were necropsied.
All the data are expressed as the means ± standard deviation (SD), and comparisons among the different groups were performed using an analysis of variance (ANOVA). The IBM statistical package for the social science (SPSS) statistics 20 software was used for all the analysis. The significance level was set at 5 and 1% (P < 0.05 and P < 0.01). The LD50 value was determined according to the Bliss method (Badisa et al. 2008).

[2] = test system: rats; conditions: ref Saka et al. 2004; cited from earlier work
Text: (§1) The mechanism of the poisonous effects caused by TAT and CTP is not yet well understood. However, it is known that L‐arginine stimulates the release of insulin and causes necrotic pancreatitis with specific elevation of amylase in serum and urine. […] Thus, the higher mass ratio of arginine residues in the conjugate (Table 4) might be the best explanation of the toxicity.

[3] = test system: mice; conditions: converted from rat value; ref Saka et al. 2004; cited from earlier work
Text: as §1

[4] = iv, Bliss method, five males and five females per group, observed up to 14 days, Table 2

## YGRKKRRQRRR [TAT, arginine-rich membrane-permeable undecapeptide …]
[1]; iv (tail vein), values in text
  LD50: 27.244 mg/kg
[1]; iv, 27 mg kg^−1
  Survival rate (%): 50%
[1]; [4]
  LD50: 27.244 mg/kg
[1]; iv, group 1, 25 mg kg^−1
  Mortality (%): 22.2%
[1]; iv, group 1, 25 mg kg^−1, dead/total
  Mortality: 2/9
[1]; iv, group 2, 27 mg kg^−1
  Mortality (%): 44.4%
[1]; iv, group 2, 27 mg kg^−1, dead/total
  Mortality: 4/9
[1]; iv, group 3, 28 mg kg^−1
  Mortality (%): 55.6%
[1]; iv, group 3, 28 mg kg^−1, dead/total
  Mortality: 5/9
[1]; iv, group 4, 30 mg kg^−1
  Mortality (%): 87.5%
[1]; iv, group 4, 30 mg kg^−1, dead/total
  Mortality: 7/8
[1]; iv, rounded values of Table 4
  LD50: 27 mg/kg

## O=C(O)C(F)(F)F [TFA, Trifluoroacetic acid]
[1]; 0.1% TFA solution
  Toxicity in words (TFA control group): did not manifest any toxicity
[1]; 0.5% TFA solution
  Toxicity in words (TFA control group): did not manifest any toxicity
[1]; 1% TFA solution
  Toxicity in words (TFA control group): did not manifest any toxicity
[1]; 2% TFA solution
  Toxicity in words (TFA control group): death appeared in a part of the mice

## N=C(N)NCCC[C@H](N)C(=O)O [arginine]
[2]
  LD50 of arginine in rats: 3793 mg/kg
[3]
  LD50 of arginine, corresponding value in mice: 542 mg/kg

## YGRRARRRRRR [CTP, arginine-rich membrane-permeable undecapeptide […]]
[1]; iv (tail vein), values in text
  LD50: 21.345 mg/kg
[1]; iv, 21 mg kg^−1
  Survival rate (%): 50%
[1]; [4]
  LD50: 21.345 mg/kg
[1]; iv, group 1, 19.5 mg kg^−1
  Mortality (%): 20%
[1]; iv, group 1, 19.5 mg kg^−1, dead/total
  Mortality: 2/10
[1]; iv, group 2, 20 mg kg^−1
  Mortality (%): 30%
[1]; iv, group 2, 20 mg kg^−1, dead/total
  Mortality: 3/10
[1]; iv, group 3, 20.5 mg kg^−1
  Mortality (%): 36.4%
[1]; iv, group 4, 22 mg kg^−1
  Mortality (%): 60%
[1]; iv, group 4, 22 mg kg^−1, dead/total
  Mortality: 6/10
[1]; iv, rounded values of Table 4
  LD50: 21 mg/kg

## NCCCC(=O)O [GABA, γ‐aminobutyric acid]
[1]; dose as high as 8000 mg kg^−1
  Toxicity in words: not toxic at all
[1]; iv, 8000 mg kg^−1
  Survival rate (%): 100%

## RRRRRRRRRRR [R11, undecapeptide composed purely of arginine residues, …]
[1]; iv (tail vein), values in text
  LD50: 16.5 mg/kg
[1]; iv, 16.5 mg kg^−1
  Survival rate (%): 50%
[1]; [4]
  LD50: 16.508 mg/kg
[1]; iv, group 1, 15.5 mg kg^−1
  Mortality (%): 10%
[1]; iv, group 1, 15.5 mg kg^−1, dead/total
  Mortality: 1/10
[1]; iv, group 2, 16 mg kg^−1
  Mortality (%): 30%
[1]; iv, group 2, 16 mg kg^−1, dead/total
  Mortality: 3/10
[1]; iv, group 3, 16.5 mg kg^−1
  Mortality (%): 50%
[1]; iv, group 3, 16.5 mg kg^−1, dead/total
  Mortality: 5/10
[1]; iv, group 4, 17 mg kg^−1
  Mortality (%): 70%
[1]; iv, group 4, 17 mg kg^−1, dead/total
  Mortality: 7/10
[1]; iv, rounded values of Table 4
  LD50: 16.5 mg/kg

## ACSSSPSKHCG [TD]
[1]; iv, 140 mg kg^−1
  Survival rate (%): 100%
[1]; [4]
  LD50: >140 mg/kg
[1]; iv, group 1, 80 mg kg^−1
  Mortality (%): 0%
[1]; iv, group 1, 80 mg kg^−1, dead/total
  Mortality: 0/2
[1]; iv, group 2, 100 mg kg^−1
  Mortality (%): 0%
[1]; iv, group 2, 100 mg kg^−1, dead/total
  Mortality: 0/8
[1]; iv, group 3, 140 mg kg^−1
  Mortality (%): 0%
[1]; iv, group 3, 140 mg kg^−1, dead/total
  Mortality: 0/8
[1]; iv, rounded values of Table 4
  LD50: >140 mg/kg
[1]; tail vein, 140 mg kg^−1
  Survival and side effects in words: all the mice well survived even without any side effect appeared
